# BindingDB's records for PubMed 1738111 (University of Texas, 1992)
# Target: 5-hydroxytryptamine receptor 1B (Rattus norvegicus, UniProt P28564)
# Sequence (P28564 whole entry): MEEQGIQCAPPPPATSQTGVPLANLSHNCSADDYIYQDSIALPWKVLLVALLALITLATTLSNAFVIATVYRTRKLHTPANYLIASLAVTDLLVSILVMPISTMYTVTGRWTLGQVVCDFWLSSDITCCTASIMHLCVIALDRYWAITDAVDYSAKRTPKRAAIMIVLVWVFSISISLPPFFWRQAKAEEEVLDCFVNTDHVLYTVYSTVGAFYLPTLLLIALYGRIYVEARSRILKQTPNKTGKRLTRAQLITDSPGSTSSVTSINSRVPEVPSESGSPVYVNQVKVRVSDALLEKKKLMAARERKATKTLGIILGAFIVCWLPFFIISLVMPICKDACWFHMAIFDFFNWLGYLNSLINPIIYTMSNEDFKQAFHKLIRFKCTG
row,Structure (SMILES),Ki [nM]
1,CN1CCN(c2nc3cc(C(F)(F)F)ccc3n3cccc23)CC1 [CAS_109028-10-6],32
2,FC(F)(F)c1cccc(N2CCNCC2)c1 [TFMPP],84
3,CC[C@@H](CO)NC(=O)[C@@H]1C=C2c3cccc4c3c(cn4C)C[C@H]2N(C)C1,386
4,CN1C[C@@H](NS(=O)(=O)N(C)C)C[C@@H]2c3cccc4c3c(cn4C)C[C@H]21 [MESULERGINE],> 10000
5,CN1C2CCC1CC(OC(=O)c1cc(Cl)cc(Cl)c1)C2 (stereo unspecified) [MDL 72222],> 10000
6,"NCC(O)c1ccc(O)c(O)c1 (stereo not drawn) [Noradrenaline,(+)]",> 10000
7,NCCc1c[nH]c2ccc(C(N)=O)cc12 [[3H]-5-carboxamidotryptamine],4
8,c1ccc2nc(N3CCNCC3)ccc2c1 [2-Piperazin-1-yl-quinoline (Quipazine)],249
9,"O=C(c1ccc(F)cc1)C1CCN(CCn2c(=O)[nH]c3ccccc3c2=O)CC1 [3-(2-{4-[(4-fluorophenyl)carbonyl]piperidin-1-yl}ethyl)-1,2,3,4-tetrahydroquinazoline-2,4-dione]",> 10000
10,"Clc1cccc(Cl)c1N=C1NCCN1 [2-(2,6-dichloroanilino)-2-imidazoline]",> 10000
11,Clc1cccc(N2CCNCC2)c1 [mCPP],96
12,"CSc1ccc2c(c1)C(N1CCN(C)CC1)Cc1ccccc1S2 (stereo unspecified) [methanesulfonic acid;1-methyl-4-(3-methylsulfanyl-5,6-dihydrobenzo[b][1]benzothiepin-5-yl)piperazine]",95
13,"O=C(CCCN1CCC2(CC1)C(=O)NCN2c1ccccc1)c1ccc(F)cc1 [8-[4-(4-fluorophenyl)-4-oxidanylidene-butyl]-1-phenyl-1,3,8-triazaspiro[4.5]decan-4-one]",> 10000
14,Cc1ccc(N(CC2=NCCN2)c2cccc(O)c2)cc1 [SMR000059054],870
15,CN1C2CCC1CC(OC(=O)c1c[nH]c3ccccc13)C2 (stereo unspecified),> 10000
16,COc1cc2nc(N3CCN(C(=O)c4ccco4)CC3)nc(N)c2cc1OC [[3H]-Minipress],290
